# Measurements as given in the supplement of paper PMC8671470.
# Tests used:
# Assay in all cases: cell viability (% survival relative to DMSO control); higher = less cytotoxic
# Conditions in all cases: 72 h
# [1] = test system: myeloid leukemia patient primary cells Pat.6
# Procedure, shortened: (§1)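 Where an area under the curve appears, it was computed with the drc and PharmacoGx R packages from log-logistic fits. Those fits used four parameters. The underlying viability data came from CellTiter-Glo after 72 h, normalised to DMSO and 10 μM proteasome-inhibitor wells, with thawed, Ficoll-purified AML or CML patient mononuclear cells at 10,000 cells/well in RPMI 1640 with 10% FBS on 384-well plates pre-printed with 70 compounds at five tenfold concentrations (1–10,000 nM) in duplicate.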
# [2] = test system: myeloid leukemia patient primary cells Pat.3
# Procedure, shortened: as §1
# [3] = test system: myeloid leukemia patient primary cells Pat.8
# Procedure, shortened: as §1
# [4] = test system: myeloid leukemia patient primary cells Pat.15
# Procedure, shortened: as §1
# [5] = test system: myeloid leukemia patient primary cells Pat.4
# Procedure, shortened: as §1
# [6] = test system: myeloid leukemia patient primary cells Pat.10
# Procedure, shortened: as §1
# [7] = test system: myeloid leukemia patient primary cells Pat.11
# Procedure, shortened: as §1
# [8] = test system: myeloid leukemia patient primary cells Pat.12
# Procedure, shortened: as §1
# [9] = test system: myeloid leukemia patient primary cells Pat.9
# Procedure, shortened: as §1
# [10] = test system: myeloid leukemia patient primary cells Pat.14
# Procedure, shortened: as §1
smiles,measurement,setting,value
CN(C)CCNC(=O)c1cccn2c(=O)c3cc4ccccc4cc3nc12 [Bmh-21],cell viability,[1]; 1 nM,96.4%
same,cell viability,[1]; 10 nM,> 100%
same,cell viability,[1]; 100 nM,> 100%
same,cell viability,[1]; 1000 nM,67.1%
same,cell viability,[1]; 10000 nM,10.2%
same,cell viability,[2]; 1 nM,94.4%
same,cell viability,[2]; 10 nM,90.3%
same,cell viability,[2]; 100 nM,88.3%
same,cell viability,[2]; 1000 nM,12.1%
same,cell viability,[2]; 10000 nM,3.46%
same,cell viability,[3]; 1 nM,81.8%
same,cell viability,[3]; 10 nM,74.6%
same,cell viability,[3]; 100 nM,79.8%
same,cell viability,[3]; 1000 nM,88.3%
same,cell viability,[3]; 10000 nM,< 0%
same,cell viability,[4]; 1 nM,91.5%
same,cell viability,[4]; 10 nM,99.6%
same,cell viability,[4]; 100 nM,92.4%
same,cell viability,[4]; 1000 nM,0.134%
same,cell viability,[4]; 10000 nM,0.56%
same,cell viability,[5]; 1 nM,81.3%
same,cell viability,[5]; 10 nM,89.6%
same,cell viability,[5]; 100 nM,93.9%
same,cell viability,[5]; 1000 nM,3.78%
same,cell viability,[5]; 10000 nM,1.54%
same,cell viability,[6]; 1 nM,74.6%
same,cell viability,[6]; 10 nM,87.5%
same,cell viability,[6]; 100 nM,72.1%
same,cell viability,[6]; 1000 nM,38.9%
same,cell viability,[6]; 10000 nM,17.3%
same,cell viability,[7]; 1 nM,> 100%
same,cell viability,[7]; 10 nM,97.6%
same,cell viability,[7]; 100 nM,> 100%
same,cell viability,[7]; 1000 nM,24.3%
same,cell viability,[7]; 10000 nM,1.02%
same,cell viability,[8]; 1 nM,94.1%
same,cell viability,[8]; 10 nM,91.9%
same,cell viability,[8]; 100 nM,97.3%
same,cell viability,[8]; 1000 nM,55.1%
same,cell viability,[8]; 10000 nM,0.342%
same,cell viability,[9]; 1 nM,63%
same,cell viability,[9]; 10 nM,90.4%
same,cell viability,[9]; 100 nM,69.9%
same,cell viability,[9]; 1000 nM,3.68%
same,cell viability,[9]; 10000 nM,3.45%
same,cell viability,[10]; 1 nM,87.3%
same,cell viability,[10]; 10 nM,95%
